Marks after values point to notes of the source that are not given here.
Experiments:
H^+/K^+-ATPase = molecular target: T1, H^+/K^+-ATPase (Oryctolagus cuniculus, UniProt P27112); test: Inhibition of H+/K+-ATPase enzymatic activity (rabbit gastric mucosal microsomes, malachite green); format: biochemical; conditions: pH 6.5, 37° C. 30 min, read-out: The median inhibitory concentration (IC50) of the compound to the activity of H^+/K^+-ATPase
T1 construct: collecting the middle layer (H^+/K^+-ATPase enriched gastric membranes) into a clean centrifugal tube; from tissue; host or cells: rabbit stomach (gastric mucosal microsomes, sucrose/Ficoll gradient centrifugation)
T1 sequence (P27112 whole entry): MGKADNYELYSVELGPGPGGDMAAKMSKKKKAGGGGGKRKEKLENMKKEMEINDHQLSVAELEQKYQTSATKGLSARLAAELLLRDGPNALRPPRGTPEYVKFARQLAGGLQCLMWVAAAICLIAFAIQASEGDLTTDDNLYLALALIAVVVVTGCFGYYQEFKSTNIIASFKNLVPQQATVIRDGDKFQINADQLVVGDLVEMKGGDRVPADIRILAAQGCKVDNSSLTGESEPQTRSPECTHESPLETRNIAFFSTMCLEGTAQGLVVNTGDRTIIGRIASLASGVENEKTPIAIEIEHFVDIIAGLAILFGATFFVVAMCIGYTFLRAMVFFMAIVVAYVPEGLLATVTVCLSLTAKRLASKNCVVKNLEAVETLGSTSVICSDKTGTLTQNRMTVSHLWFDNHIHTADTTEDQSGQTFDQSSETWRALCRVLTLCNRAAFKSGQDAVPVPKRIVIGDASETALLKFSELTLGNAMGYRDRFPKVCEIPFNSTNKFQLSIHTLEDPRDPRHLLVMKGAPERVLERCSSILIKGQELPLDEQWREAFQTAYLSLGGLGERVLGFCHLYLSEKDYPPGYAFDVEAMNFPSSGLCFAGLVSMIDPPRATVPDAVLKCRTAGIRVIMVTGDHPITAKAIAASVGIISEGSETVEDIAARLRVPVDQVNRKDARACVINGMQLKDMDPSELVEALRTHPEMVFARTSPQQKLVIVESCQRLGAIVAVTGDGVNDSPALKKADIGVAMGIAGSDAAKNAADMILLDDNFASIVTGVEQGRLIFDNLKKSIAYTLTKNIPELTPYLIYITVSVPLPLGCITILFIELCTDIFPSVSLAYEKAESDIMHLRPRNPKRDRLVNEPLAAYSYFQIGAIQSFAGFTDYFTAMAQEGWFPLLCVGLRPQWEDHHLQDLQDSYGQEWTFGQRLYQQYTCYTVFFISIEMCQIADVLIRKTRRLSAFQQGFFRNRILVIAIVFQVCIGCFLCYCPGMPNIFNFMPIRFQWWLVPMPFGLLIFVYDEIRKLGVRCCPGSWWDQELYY
T1 sequence (P18597 whole entry partner): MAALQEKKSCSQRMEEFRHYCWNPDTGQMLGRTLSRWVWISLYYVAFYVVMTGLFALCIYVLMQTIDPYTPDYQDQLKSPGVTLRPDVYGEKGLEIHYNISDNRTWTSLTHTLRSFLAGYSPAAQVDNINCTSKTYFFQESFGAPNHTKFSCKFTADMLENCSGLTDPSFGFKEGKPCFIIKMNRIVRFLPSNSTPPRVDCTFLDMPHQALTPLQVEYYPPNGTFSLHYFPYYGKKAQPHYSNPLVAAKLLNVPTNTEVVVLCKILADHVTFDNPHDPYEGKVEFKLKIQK
Source text: Biological Evaluation on H^+/K^+-ATPase
The following screening assays in vitro are used to evaluate the inhibiting effect of the compound of the Invention on the enzymatic activity of H^+/K^+-ATPase. Experimental materials and instruments are as follows:
1) Rabbit gastric mucosal microsomes (enriched H^+/K^+-ATPase; extracted by the Applicant)
2) Buffer solution: 50 mmol/L HEPEs-Tris, pH=6.5, 5 mmol/L magnesium chloride, 10 μmol/L valinomycin;
3) Buffer solution: 50 mmol/L HEPEs-Tris, pH=6.5, 5 mmol/L magnesium chloride, 10 μmol/L valinomycin, 5 mmol/L potassium chloride;
4) ATP: diluting ATP to 5 mM with buffer solution 1;
5) Malachite green solution: dissolving 0.12% of malachite green in 2.5 mol/L of sulfuric acid; mixing 7.5% (V/V) of ammonium molybdate and 11% of Tween 20(V/V) in a proportion of 100:25:2;
6) The method for extracting rabbit gastric mucosal microsomes (enriched H^+/K^+-ATPase) is sucrose gradient centrifugation, i.e., washing the rabbit stomach with tap water and 3M NaCl solution respectively and removing the surface moisture with filter paper; adding the pre-cooled buffer solution (4 ml/g tissue) for homogenation in a tissue homogenizer for 2-5 min; removing the large tissue particles in a way of centrifugation (600 g, 10 mm) if any after homogenation; transferring the supernatant to a clean centrifugal tube for centrifugation for 30 min at 2000 g; then transferring the supernatant to a clean centrifugal tube for further centrifugation for 90 min at 100000 g; collecting the sediment; suspending the sediment in the homogenate and blowing it to be uniform; measuring the protein concentration with Bradford method; adjusting the concentration to 10 mg/ml; adding 7.5% Ficoll demixing fluid in an equal proportion for centrifugation for 60 min at 100000 g; collecting the middle layer (H^+/K^+-ATPase enriched gastric membranes) into a clean centrifugal tube; diluting it with 4-5 times of homogenate for further centrifugation for 90 min at 100000 g; collecting the sediment; suspending the sediment in the homogenate for homogenation with a glass homogenizer; measuring the protein concentration with Bradford method and adjusting the concentration to 22.5 mg/ml; freezing it under −80° C. for standby. Experimental Process:
Adding 5 μL of gastric mucosal microsomes (H^+/K^+-ATPase) in 45 µL of buffer solution 2; adding 5 μL of the compound solution; adding 5 μL 5 mM of ATP to start the reaction for pre-reaction at 37° C. for 30 min; adding 15 μL of malachite green solution to terminate the reaction; balancing at ambient temperature for 20 min; reading the value of absorbed light at 620 nm.
Meanwhile, conducting another reaction with the same volume without potassium chloride for background, which will be subtracted when calculating the enzymatic activity.
The value of Compound IC50 is calculated through the inhibition ratios at different concentrations.

hERG potassium channel = molecular target: T2, hERG potassium channel (Homo sapiens, UniProt Q12809); test: Whole cell patch clamp, inhibition of hERG tail current; format: cell-based
T2 construct: expressed in transfected cells
T2 sequence (Q12809 whole entry): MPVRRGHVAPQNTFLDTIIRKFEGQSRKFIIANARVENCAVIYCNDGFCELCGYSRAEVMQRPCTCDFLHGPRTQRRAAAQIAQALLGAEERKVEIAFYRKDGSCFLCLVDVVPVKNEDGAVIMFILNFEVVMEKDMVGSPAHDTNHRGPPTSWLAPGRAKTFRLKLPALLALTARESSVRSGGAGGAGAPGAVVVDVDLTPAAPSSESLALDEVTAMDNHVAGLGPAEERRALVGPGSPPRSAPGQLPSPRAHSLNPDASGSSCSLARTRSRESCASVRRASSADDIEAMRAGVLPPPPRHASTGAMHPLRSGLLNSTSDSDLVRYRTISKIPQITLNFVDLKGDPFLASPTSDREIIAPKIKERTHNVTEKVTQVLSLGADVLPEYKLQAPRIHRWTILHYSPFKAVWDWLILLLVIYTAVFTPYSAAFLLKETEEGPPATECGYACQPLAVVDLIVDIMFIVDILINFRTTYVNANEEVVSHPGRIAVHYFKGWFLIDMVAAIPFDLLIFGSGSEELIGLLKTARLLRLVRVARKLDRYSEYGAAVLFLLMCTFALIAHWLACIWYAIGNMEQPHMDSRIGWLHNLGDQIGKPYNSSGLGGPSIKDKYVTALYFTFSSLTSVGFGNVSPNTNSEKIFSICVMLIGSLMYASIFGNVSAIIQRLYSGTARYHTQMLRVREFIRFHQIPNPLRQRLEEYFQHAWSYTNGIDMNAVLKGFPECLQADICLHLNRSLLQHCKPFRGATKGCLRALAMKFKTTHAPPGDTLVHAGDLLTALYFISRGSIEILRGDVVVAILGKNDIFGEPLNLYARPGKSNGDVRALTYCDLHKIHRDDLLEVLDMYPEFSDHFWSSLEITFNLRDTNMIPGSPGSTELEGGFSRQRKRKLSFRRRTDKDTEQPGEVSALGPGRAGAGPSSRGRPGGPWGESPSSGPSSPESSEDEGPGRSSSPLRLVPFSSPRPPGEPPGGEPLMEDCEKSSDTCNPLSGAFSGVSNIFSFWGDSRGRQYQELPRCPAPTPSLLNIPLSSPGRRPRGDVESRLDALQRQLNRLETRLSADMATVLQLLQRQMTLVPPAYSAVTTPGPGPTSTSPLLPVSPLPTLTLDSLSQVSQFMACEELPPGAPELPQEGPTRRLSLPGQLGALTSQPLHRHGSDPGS
Method: Test Case 2: Studies on the Effect of Compounds EXP 1, TAK-438 and EXP 12 on hERG Potassium Channel Testing System 1) Cell culture: the hERG cell is cultured in a routine way, which is subcultured in a DMEM containing 10% of fetal calf serum and 250 μg/ml of G418. 2) Fluid preparation: the composition of the extracellular fluid used in the experiment of whole cell patch clamp comprises (mM): NaCl 145, MgCl21, KCl 4, Glucose 10, HEPES 10 and CaCl22; adjusting the pH value of NaOH to 7.4 and adjusting the value of osmotic pressure to 300 mOsm with sucrose. The composition of the intracellular fluid comprises (mM):KCl 140; MgCl 21; EGTA 5; HEPES 10 and Na2ATP 4; adjusting the pH value of KOH to 7.2 and adjusting the value of osmotic pressure to 290 mOsm with sucrose.
Main composition of the extracellular and intracellular fluid
Test Procedure 1) Electrophysiological recording: taking out one culture dish for each test; cleaning it with the extracellular fluid twice and placing it on the inverted microscope stage. The experiment of whole cell patch clamp is conducted at ambient temperature; the resistance at the microelectrode tip of the used borosilicate glass is 3-5 MQ. 2) Voltage stimulus plan and current record: clamping down the membrane potential to −80 mV under the whole-cell recording mode; giving +50 mV of depolarized voltage stimulus to the cell every 30 s and lasting for 2 s, then repolarizing it to −50 mV and lasting for 3 s, thus, the tail current of hERG can be extracted. Giving 50 ms, −50 mV repolarized voltage to the cell before depolarized voltage stimulus; the current recorded at such voltage is as the base line for calculating the tail current of hERG. Only the cells meet the recording standard can be used in the test of the compounds to be tested. The hERG tail current should be recorded stably at last for 3 min in the extracellular fluid before the compound is added. After perfusion of drugs, it can be regarded that the drug effect reaches a steady state if the change of the amplitude of hERG tail current is less than 5%. If the current fails to reach a steady state in 6 min, the test should also be terminated. 3) Testing standard: the membrane resistance in the experiment should be more than 1,000 MQ. The initial current should be more than 300 pA. The series resistance should be less than 12 MQ after the whole-cell recording mode is constructed. The leakage current is less than 10% of the ionic channel current (taking −80 pA as the peak value). Data Analysis
Using Clampex 10.2 to record the original data and saving the data in the format of *abf. Using pCLAMP 10.1 to conduct data collection and analysis. Selecting 4-5 sweeps when the current is in a steady state before the compound is added; calculating the average peak value to serve as the contrasted current amplitude. Selecting 4-5 sweeps when the current is in a steady state after the compound is added; calculating the average peak value to serve as the residual amplitude of the inhibited current. The inhibition ratio of the compound to be tested to hERG current is calculated as per the equation as: % inhibition ratio={1−(current residual amplitude)/(contrasted current amplitude)}*100
After the inhibition ratio (average value±standard deviation) of the compound to be tested to the hERG current of different concentrations is obtained through the above computing method, the data with logistic equation should be fitted to obtain the value of IC50.

[1] = system: gastric acid secretion induced by histamine; test: Gastric acid secretion induced by histamine in pylorus-ligated rats; format: in vivo; conditions: SD rat
Source text: Test Case 3: Studies on the Effect of EXP 1, TAK-438 and EXP 14 on Gastric Acid Secretion Induced by Histamine Experimental Materials 1) Animals
SD rat, class SPF, male, 180-220 g; provided by Zhejiang Experimental Animal Center; production permit no.: SCXK (Z) 2014-0001.
Compound EXP 1, dissolved with a small amount of acetic acid (about 1.10N EXP 1), 0.9% sodium chloride solution to a clear liquid with needed concentration before use.
>Compound TAK-438, dissolved with 0.9% sodium chloride solution to a clear liquid with needed concentration before use.
Compound EXP 14, dissolved with a small amount of acetic acid (about 1.10N EXP 14), 0.9% sodium chloride solution to a clear liquid with needed concentration before use.
Fetching 60 SD rats of class SPF with a weight of 180-220 g; dividing the rats into 5 groups as per weights randomly, including Group EXP 1 (2 mg/kg), Group TAK-438 (2 mg/kg, as per free alkali), Group EXP 14 (2 mg/kg), Group negative control (normal saline of equal volume) and Group model control (normal saline of equal volume); 12 rats per group. Absolute diet for 24 h, water is allowed. After 24 h, administrating drugs to the tested compound groups A, B and C by gavage with a volume of 1 ml/100 g; each group is administered once; the negative control and model negative control groups are administrated by gavage with normal saline of equal volume. Narcotizing the rat with 300 mg/kg of chloral hydrate (1 ml/100 g) and fixing it onto the rat board; cutting to open the abdominal wall along the medioventral line from the mucronate cartilage with an incision of 2-3 cm; slightly pushing the left costal margin upward to expose the stomach in the incision. Ligaturing the pylorus thereunder (leave alone the adjacent blood vessels) and then suturing the abdominal incision. Giving histamine dihydrochloride (30 mg/10 m/kg) hypodermically to the rat 1 h after the tested compound or normal saline are administrated. Choking the rat to death with excessive CO2 3 h after the histamine is given; taking out the stomach and collecting the gastric contents for centrifugation at 3000 rpm/min; adjusting the PH value of the acid fluid to 7.0 with 0.1 mol/L of NaOH titration and then calculating the total acid content of the 3 h. Refer to Table 3 for results.

`CNCc1cc(-c2ccccc2F)n(S(=O)(=O)c2cccc(OC3CCN(C(C)=O)C3)c2)c1` (stereo not shown) [EXP 2, 1-(3-(3-((2-(2-fluorobenzene)-4-((methylamino)methyl)-1H-yl)sulfonyl)phenoxy)pyrrolidine-1-yl)ethyl-1-ketone] was tested, and the IC50 (H^+/K^+-ATPase) was 100 to 1000 nM.
Compound `CNCc1cc(-c2ccccc2F)n(S(=O)(=O)c2cccc(OCCOC)c2)c1` [EXP 3, 1-(5-(2-fluorobenzene)-1-((3-(2-methoxyethyoxyl)phenyl)sulfonyl)-1H-pyrrole-3-yl)-N-methyl methylamine] has an IC50 (H^+/K^+-ATPase) of 100 to 1000 nM.
`CNCc1cc(-c2ccccc2F)n(S(=O)(=O)c2cccc(OCCCS(C)(=O)=O)c2)c1` [EXP 4, 1-(5-(2-fluorobenzene)-1-((3-(3-methylsulphonylpropoxy)phenyl)sulfonyl)-1H-pyrrole-3-yl)-N-methyl methylamine] was tested, and the IC50 (H^+/K^+-ATPase) was < 100 nM.
In the case of `CNCc1cc(-c2ccccc2F)n(S(=O)(=O)c2cccc(OCCN3CCOCC3)c2)c1` [EXP 5, 1-(5-(2-Fluorobenzene)-1-((3-(2-Morpholinyl Ethyoxyl)Phenyl)Sulfonyl)-1H-Pyrrole-3-Yl)-N-Methyl Methylamine], the IC50 (H^+/K^+-ATPase) is reported as 100 to 1000 nM.
Work on `CNCc1cc(-c2ccccc2F)n(S(=O)(=O)c2cccc(NCCN3CCOCC3)c2)c1` [EXP 6, 3-((2-(2-Fluorobenzene)-4-((Methylamino)Methylene)-1H-Pyrrole-1-Yl)Sulfonyl)-N-(2-Morpholinyl Ethyl) Henylamine] yielded an IC50 (H^+/K^+-ATPase) of 100 to 1000 nM.
Work on `CNCCCOc1cccc(S(=O)(=O)n2cc(CNC)cc2-c2ccccc2F)c1` [EXP 7, 3-(3-((2-(2-fluorobenzene)-4-((methylamino)methylene)-1H-pyrrole-1-yl)sulfonyl)phenoxy)-N-methyl-n-propylamine] yielded an IC50 (H^+/K^+-ATPase) of 100 to 1000 nM.
With `CNCc1cc(-c2ccccc2F)n(S(=O)(=O)c2cccc(OCC3CNCCO3)c2)c1` (stereo not shown) [EXP 8, 1-(5-(2-fluorobenzene)-1-((3-(morpholinyl-2-yl-methoxyl)phenyl)sulfonyl)-1H-pyrrole-3-yl)-N-methyl methylamine] the IC50 (H^+/K^+-ATPase) was 100 to 1000 nM.
In the case of `CNCc1cc(-c2ccccc2F)n(S(=O)(=O)c2cccc(OCC(C)(C)COC)c2)c1` [EXP 9, 1-(5-(2-fluorobenzene)-1-((3-(3-methoxy-2,2-dimethylpropoxy)phenyl)sulfonyl)-1H-pyrrole-3-yl)-N-methyl methylamine], the IC50 (H^+/K^+-ATPase) is reported as 100 to 1000 nM.
With `CNCc1cc(-c2ccccc2F)n(S(=O)(=O)c2cccc(OCCOc3ccccc3)c2)c1` [EXP 10, 1-(5-(2-Fluorobenzene)-1-((3-(2-Phenoxy Ethyoxyl)Phenyl)Sulfonyl)-1H-Pyrrole-3-Yl)-N-Methyl Methylamine] the IC50 (H^+/K^+-ATPase) was < 100 nM.
`CNCc1cc(-c2ccccc2F)n(S(=O)(=O)c2cccc(OCCN3CCCCC3)c2)c1` [EXP 11] gave an IC50 (H^+/K^+-ATPase) of 1000 to 5000 nM.
For `CNCc1cc(-c2ccccc2F)n(S(=O)(=O)c2cccc(OC)c2)c1` [EXP 12], the IC50 (hERG potassium channel; human, hERG cells (host cell line not named), pH 7.4, whole cell patch clamp, logistic fit) was 3950 nM, the “Inhibition ratio of max. test concentration (hERG current)” value (hERG potassium channel; max. test concentration 30 μM) was 90.33 ± 2.16% and the IC50 (H^+/K^+-ATPase) was < 100 nM.
`CNCc1cc(-c2ccccc2F)n(S(=O)(=O)c2cccc(OCC(=O)NC)c2)c1` [EXP 14, 2-(3-((2-(2-fluorophenyl)-4-((methylamine)methyl)-1H-pyrrole-1-yl)sulfonyl)phenoxy)-N-methylacetamide] was tested, and the IC50 (H^+/K^+-ATPase) was 100 to 1000 nM, the Total acid content ([1]; 2 mg/kg by gavage 1 h before histamine, total acid of 3 h) was 0.65 ± 0.20** 10^−4 mol and the “Acid inhibiting rate %” value ([1]; 2 mg/kg by gavage, compared with model control) was 40.4%.

— US10913714B2, “Pyrrole sulfonyl derivative, preparation method and medical use thereof” (JIANGSU CAREPHAR PHARMACEUTICAL CO., LTD, priority 2015, dated 2021)
